Laboratory results published in US11213512B2, “Bis-amino acid based compound and use thereof” (THE CURATORS OF THE UNIVERSITY OF MISSOURI, priority 2016, dated 2022).

Tests used:
HEK-293 cells = test: Mammalian cell permeability and vitality, confocal microscopy (propidium iodide / fluorescein diacetate); type: cell-based, human; conditions: 2 hours
Procedure: To test the permeability of HEK-293 cells, the cells were cultured in growth medium as described above. HEK-293 (90% confluent) were then seeded in a 96-well plate to get 30,000 cells/well. After 24 hours of incubation at 37° C. and 5% CO2, the spent media was replaced with media (DMEM and 10% FBS) containing compound 2 at either 20 μM or 80 μM. […] Triton X-100 at 0.1%—by volume (1670 μM) and DMSO 0.5% (v/v) were also used as controls. After 2 hours of incubation, spent media was replaced with PBS containing propidium iodide (30 μM) and fluorescein diacetate (60 μM) and incubated at 37° C. and 5% CO2. After 2 hour of incubation, the spend media was replaced with fresh PBS and the cells were observed under Zeiss LSM 700 confocal microscope. The images were reported without any alterations. The gain and the intensity in all the images were kept constant.
A compound that inhibits bacterial growth and penetrates into the microbe's cytosol may also penetrate into mammalian cells. A similar microscopic study was conducted with the human embryonic kidney (HEK-293) cell line. In this case, only compound 2 was studied. […] The microscopic study was therefore conducted at 20 μM, a value well below any inhibitory concentration, and at 80 μM, a concentration above all three MIC values. The 80 μM concentration was used to confirm the […] of 2 and to establish the lack of serum inhibition.

[1] = test system: Staphylcoccus aureus 1199B; test: Checkerboard combination with norfloxacin or ethidium bromide; type: cell-based, Staphylococcus aureus; conditions: compound at ½ MIC or 2 μM; additive not stated
Procedure: Two different strains of E. coli (Gram-negative) were used. The laboratory strain of E. coli, K-12 (ATCC Accession No. 700926), was used for preliminary MIC determinations. The tetracycline resistant strain of E. coli (Tet^R) was prepared by transforming competent JM109 E. coli (Promega) with the pBR322 plasmid (Carolina Biologicals) using the manufacturers protocol. This plasmid contains two resistance genes: the tetA gene expresses the tetracycline resistance TetA efflux pump (Sapunaric and Levy, Microbiol. 2005, 151, 2315-2322) and the amp^R gene expresses a β-lactamase enzyme (Bolivar, et al; Gene 1977, 2, 95-113) that cleaves the four membered ring of penicillin derivatives. The resulting E. coli, which we designate Tet^R E. coli, is both tetracycline and ampicillin resistant. The TetA efflux pump belongs to the major facilitator superfamily (MFS), spans the cytoplasmic membrane, and transports tetracycline from the cell cytoplasm to the periplasmic space (Thanassi, et al., J. Bacteriol. 1995, 177, 998-1007). This active efflux utilizes the proton gradient as an energy source (Levy, Antimicrob. Agents Chemother. 1992, 36, 695-703). […]
Similar experiments to those described in Example 7 above were conducted, wherein the antimicrobial activity of various compounds was determined against Staphylcoccus aureus 1199B. […]

Row | Compound | cellular vitality (FDA fluorescence) (HEK-293 cells; 20 μM) | cellular vitality (FDA fluorescence) (HEK-293 cells; 80 μM) | activity recovered (fold) [1]
1 | Cl.Cl.N[C@@H](Cc1c[nH]c2ccccc12)C(=O)Nc1cccc(NC(=O)[C@@H](N)Cc2c[nH]c3ccccc23)c1 [Compound 2, (2S,2′S)-1,1′-(1,3-Phenylenebis(azanediyl))bis(3-(1H-indol-3-yl)-1-oxopropan-2-aminium) chloride] | no loss of vitality | some toxic effect was apparent | 
2 | Cl.Cl.N[C@H](Cc1c[nH]c2ccccc12)C(=O)NCCCCCCCCCCCCNC(=O)[C@@H](N)Cc1c[nH]c2ccccc12 [Compound 10, (S)-1-((12-((R)-2-Ammonio-3-(1H-indol-3-yl)propanamido)dodecyl)amino)-3-(1H-indol-3-yl)-1-oxopropan-2-aminium chloride] |  |  | 128 fold
